In patent publication US9308238B2, “Compositions and methods for modulating EMT and uses thereof” (Whitehead Institute for Biomedical Research, priority 2010, dated 2016):

Tests used:
Format in all cases: cell-based, human
luminal MECs [1] = assay: Growth curve of luminal cells in monolayers; settings: luminal cultures
Description: FIGS. 14A-14D. Modulation of migratory and self-renewal abilities in basal and luminal MECs. (FIG. 14A) Growth curve: basal cells treated every 48 hrs with indicated factors, TGF-beta-type 1 receptor inhibitors A83-01 and SB431542 (10 μM), SFRP1 (1 μg/ml); cells were counted at indicated time points, n=2. (FIG. 14B) Growth curve: luminal cells treated every 48 hrs with indicated factors, TGF-beta 1 (5 ng/ml), Wnt5a (250 ng/ml), anti-DKK1-(10 μg/ml) and anti-E-Cadherin antibodies (1 μg/ml) or a combination of all factors (iEMT-II); cells were counted at indicated time points, n=2, (FIG. 14C) Microscopy images of basal cells treated as described in (A), at 4 days/before first passage. (FIG. 14D) Microscopy images of luminal cells treated as described in (B), at 4 days/before first passage.
(§1) Primary mammary epithelial cell culture. Single-cell suspensions of primary human mammary epithelial cells (MECs) were generated from reduction mammoplasties of pre-menopausal women as previously described (Stingl et al., 2001), Data from three donors are included in this study. Primary MECs were cultured on collagen I-coated plates (Millipore) in MEGM medium (Lonza) supplemented with 1% Fetal Bovine Serum in a humidified 4% O2, 5% CO2, atmosphere.

luminal MECs [2] = assay: Migration assay, primary luminal cells after pre-treatment; settings: 5-day treatment
Description: (§2) FIGS. 7A-7G. Migratory and self-renewal properties in primary MECs: inhibition and induction. (FIG. 7A) Mammosphere Assay: microscopy images of mammospheres and quantification of mammosphere formation by purified basal, luminal and unsorted MEC populations. Primary spheres were allowed to form over a period of 7 days, dissociated and seeded for secondary sphere formation, n(mammosphere)/1000 cells, n=48, (FIG. 7B) Migration Assay: microscopy images of migrated cells in Boyden Chambers and quantification, n=6. (FIG. 7C) Mammosphere Assay: basal cells were seeded into assay after a 5 day pre-treatment with TGF-beta inhibitors A83-01 and […] (SB43, both inhibitors at 10 μM) as well as recombinant SFRP1 (1 μg/ml), n(mammospheres)/1000 cells, n=6. (FIG. 7D) Migration Assay: basal cells were seeded into migration assays treated after 5 day pre-treatment as described in (C), n=24. (FIG. 7E) Mammosphere Assay: luminal cells were seeded into the assay following a 5 day pre-treatment with TGF-beta 1 (5 ng/ml), Wnt5a (250 ng/ml), anti-E-Cadherin antibody (1 μg/ml) plus anti-DKK1 antibody (10 μg/ml), and a cocktail of all factors added together (iEMT-II), n(mammospheres)/1000 cells, n=24. (FIG. 7F) Migration Assay: luminal cells were seeded into Boyden Chambers following a 5 day pre-treatment as described in (E), n=6. […]

basal MECs = assay: Migration assay, primary basal cells after pre-treatment; settings: 5 day pre-treatment
Description: as §2

primary MECs = assay: Proliferation of primary MECs; settings: data not shown
Description: We also undertook to test whether the autocrine loops operating in HTwist and MSP cells enabled basal MECs to maintain their self-renewal and migratory abilities. […] In addition, we blocked autocrine Wnt signaling through application of recombinant SFRP1. After a 5-day, daily treatment with both TGF-beta inhibitors or SFRP1 in monolayer cultures, basal cells were submitted to migration and mammosphere assays in the absence of further treatment.
as §1

## TGF-beta 1: recombinant TGF-beta 1 protein, used at 5 ng/ml
Luminal MECs [1]
  proliferation in monolayers: significantly reduced
Luminal MECs [2]
  increase in motile cells: 8 fold

B1: SFRP1: Recombinant human SFRP1 protein (R&D Systems), secreted decoy receptor binding canonical and non-canonical Wnt ligands (protein, UniProt Q8N474 32-314, looked up)
Secreted frizzled-related …: SEYDYVSFQSDIGPYQSGRFYTKPPQCVDIPADLRLCHNVGYKKMVLPNLLEHETMAEVKQQASSWVPLLNKNCHAGTQVFLCSLFAPVCLDRPIYPCRWLCEAVRDSCEPVMQFFGFYWPEMLKCDKFPEGDVCIAMTPPNATEASKPQGTTVCPPCDNELKSEAIIEHLCASEFALRMKIKEVKKENGDKKIVPKKKKPLKLGPIKKKDLKKLVLYLKNGADCPCHQLDNLSHHFLIMGRKVKSQYLLTAIHKWDKKNKEFKNFMKKMKNHECPTFQSVFK
Basal MECs
  reduction of motility: 3 fold

B2: BMP4: Recombinant BMP4 protein obtained from Stemgent (protein, UniProt P12644 293-408, looked up)
Bone morphogenetic protein 4: SPKHHSQRARKKNKNCRRHSLYVDFSDVGWNDWIVAPPGYQAFYCHGDCPFPLADHLNSTNHAIVQTLVNSVNSSIPKACCVPTELSAISMLYLDEYDKVVLKNYQEMVVEGCGCR
Primary MECs
  effect on proliferation of primary MECs: strong anti-proliferative effect
